Source: ChEMBL document CHEMBL1255361, “Differential antibiotic susceptibility of Mycobacterium abscessus variants in biofilms and macrophages compared to that of planktonic bacteria” (2008)
Converted amounts (≈) assume the structure as drawn. The source made the active and inactive calls. The rule behind the calls is not given here.

Key:
[1] = system: Mycobacteroides abscessus; assay: Antimicrobial activity against Mycobacterium abscessus 390R after 96 hrs; type: functional
[2] = system: Mycobacteroides abscessus; assay: Antimicrobial activity against Mycobacterium abscessus 390S; type: functional
[3] = system: Mycobacteroides abscessus; assay: Antimicrobial activity against Mycobacterium abscessus 390S assessed as inhibition of planktonic cell growth in replete medium; type: functional
[4] = system: Mycobacteroides abscessus; assay: Antimicrobial activity against Mycobacterium abscessus 390S assessed as inhibition of resuspended biofilm formation in replete medium; type: functional
[5] = system: Mycobacteroides abscessus; assay: Antimicrobial activity against Mycobacterium abscessus 390S assessed as inhibition of planktonic cell growth in depleted medium; type: functional
[6] = system: Mycobacteroides abscessus; assay: Antimicrobial activity against Mycobacterium abscessus 390S assessed as inhibition of biofilm formation at 64 ug/ml after 24 hrs; type: functional
[7] = system: Mycobacteroides abscessus; assay: Bacteriostatic activity against Mycobacterium abscessus 390V infected in human monocyte-derived macrophage at 10 times MIC; type: functional, organism-based
[8] = system: Mycobacteroides abscessus; assay: Antimicrobial activity against Mycobacterium abscessus 390V after 96 hrs; type: functional
[9] = system: Mycobacteroides abscessus; assay: Bacteriostatic activity against Mycobacterium abscessus 390S assessed as inhibition of planktonic cell growth up to 1024 ug/ml after 24 hrs; type: functional, organism-based
[10] = system: Mycolicibacterium fortuitum; assay: Antimicrobial activity against Mycobacterium fortuitum; type: functional
[11] = system: Mycobacteroides abscessus; assay: Antimicrobial activity against Mycobacterium abscessus 390S after 96 hrs; type: functional
[12] = system: Mycobacteroides abscessus; assay: Antimicrobial activity against Mycobacterium abscessus 390S assessed as inhibition of biofilm formation up to 512 ug/ml after 24 hrs; type: functional
[13] = system: Mycobacteroides abscessus; assay: Antimicrobial activity against Mycobacterium abscessus 390S assessed as inhibition of biofilm formation up to 128 ug/ml treated during lag-phase measured after 24 hrs; type: functional, organism-based
[14] = system: Mycobacteroides abscessus; assay: Antimicrobial activity against Mycobacterium abscessus 390S assessed as inhibition of biofilm formation up to 128 ug/ml treated during mid log-phase; type: functional
[15] = system: Mycobacteroides abscessus; assay: Antimicrobial activity against Mycobacterium abscessus 390S infected in human monocyte-derived macrophage assessed as reduction in viable bacteria count at 10 times MIC by […]; type: functional, organism-based
[16] = system: Mycobacteroides abscessus; assay: Bacteriostatic activity against Mycobacterium abscessus 390S infected in human monocyte-derived macrophage assessed as inhibition of planktonic cell growth at 4 ug/ml treated 24 hrs postinfection; type: functional, organism-based
[17] = system: Mycobacteroides abscessus; assay: Bacteriostatic activity against Mycobacterium abscessus 390R infected in human monocyte-derived macrophage assessed as inhibition of planktonic cell growth at 4 ug/ml treated 24 hrs postinfection; type: functional, organism-based
[18] = system: Mycobacteroides abscessus; assay: Bacteriostatic activity against Mycobacterium abscessus 390V infected in human monocyte-derived macrophage assessed as inhibition of planktonic cell growth at 4 ug/ml treated 24 hrs postinfection; type: functional, organism-based

Row | SMILES | MIC [1] [µg/mL] | MBC [2] [µg/mL] | MBC [3] [µg/mL] | MBC [4] [µg/mL] | MBC [5] [µg/mL] | log10cfu [6] | Activity [7] | MIC [8] [µg/mL] | Activity [9] | MIC [10] [µg/mL] | MIC [11] [µg/mL] | log10cfu [12] | Activity [13] | log10cfu [14] | Activity [15] | Activity [16] | Activity [17] | Activity [18]
1 | NCC[C@H](O)C(=O)N[C@@H]1C[C@H](N)[C@@H](O[C@H]2O[C@H](CN)[C@@H](O)[C@H](O)[C@H]2O)[C@H](O)[C@H]1O[C@H]1O[C@H](CO)[C@@H](O)[C@H](N)[C@H]1O [AMIKACIN] | 2 (≈ 3.42 µM) | 64 (≈ 109 µM) | 32 (≈ 54.6 µM) | 64 (≈ 109 µM) | 128 (≈ 219 µM) | 1.1 | Active |  |  |  |  |  |  |  |  |  |  | 
2 | CO[C@@]1(NC(=O)Cc2cccs2)C(=O)N2C(C(=O)O)=C(COC(N)=O)CS[C@@H]21 [CEFOXITIN] |  |  |  |  |  |  | Active | 8 (≈ 18.7 µM) | Active | 6.25 (≈ 14.6 µM) |  |  |  |  |  |  |  | 
3 | CC[C@H]1OC(=O)[C@H](C)[C@@H](O[C@H]2C[C@@](C)(OC)[C@@H](O)[C@H](C)O2)[C@H](C)[C@@H](O[C@@H]2O[C@H](C)C[C@H](N(C)C)[C@H]2O)[C@](C)(OC)C[C@@H](C)C(=O)[C@H](C)[C@@H](O)[C@]1(C)O [CLARITHROMYCIN] |  | 16 (≈ 21.4 µM) | 16 (≈ 21.4 µM) | 256 (≈ 342 µM) | 256 (≈ 342 µM) |  |  |  |  |  | 0.25 (≈ 0.334 µM) | 0.6 | inactive | 1 | Active | Active | Active | Active
